Measurements taken from patent publication US20140065241A1, “USES OF (-)-PERHEXILINE” (Adelaide Research & Innovation Pty Ltd, priority 2012, published 2014).
pEC50: −log10 of the molar value.

Legend:
[1] = tested on: rat isoprenaline model of heart failure; assay: Plasma troponin T in rat isoprenaline model of heart failure; type: in vivo; details: DA rats; 2 weeks pre-treatment 200 mg/kg/day; isoprenaline 50 mg/kg i.p.; plasma 3 hr after
Method: The effect of racemic perhexyline, (+)-perhexyline and (−)-perhexyline on myocardial damage in a rat isoprenaline model of heart failure, using Troponin T as an indirect measure of myocardial damage was investigated. The use of a rat isoprenaline model of heart failure is as described in Teerlink, J R et al. (1994) “Progressive ventricular remodeling in response to diffuse isoproterenol-induced myocardial necrosis in rats” Circ Res, 75: 105-13.
DA rats were treated for 2 weeks with vehicle or 200 mg/kg/day of racemic, (+)- or (−)-perhexyline maleate, on day 15 myocardial necrosis was induced by i.p. injection of 50 mg/kg isoprenaline, with a second group of controls receiving an i.p. injection of saline (n=5). Cardiac troponin T levels were measured in plasma collected 3 hr following treatment by venipuncture of the tail vein.

[2] = clinical use of racemic drug; cited from earlier work
rat isoprenaline model = assay: Histological assessment of isoprenaline-induced myocardial injury; type: in vivo; details: DA rats; 2 weeks pre-treatment 200 mg/kg/day; isoprenaline 50 mg/kg
Method: DA rats were treated for 2 weeks with vehicle or 200 mg/kg/day of racemic, (+)- or (−)-perhexyline maleate, on day 15 myocardial necrosis was induced by i.p. injection of 50 mg/kg isoprenaline, with a second group of controls receiving an i.p. injection of saline (n=5). Cardiac troponin T levels were measured in plasma collected 3 hr following treatment by venipuncture of the tail vein. […] The severity and extent of myocardial injury were assessed by a pathologist who was blinded to the treatment, and classified as: 0—no change; 1—mild (single mild focus of myocyte damage or multiple small foci with mild inflammatory cell infiltrate); 2—moderate (multiple larger foci of myocyte damage with moderate inflammatory cell infiltrate) and 3—severe (multiple larger foci of myocyte damage with severe inflammatory cell infiltrate or broad zone of necrosis with extensive inflammation). Results were analysed by dividing animals into two response groups 0-1: no or mild >1: moderate to severe.

TXNIP = assay: Myocardial TXNIP staining (immunohistochemistry) after isoprenaline; type: in vivo, rat; details: DA rats; 2 weeks pre-treatment 200 mg/kg/day; isoprenaline 50 mg/kg
Source text: CONT; *=P<0.05 c.f. ISO; ̂=P=0.05 c.f. ISO. […] T×NIP is a regulatory protein which couples substrate utilization and redox state. Increased expression of T×NIP is associated with increased oxidative stress, decreased insulin secretion, decreased glucose uptake and suppression of PPARα (a major nuclear transcription factor regulating lipid metabolism). Thus, both (−)-perhexyline and (+)-perhexyline may also exert cardioprotection via inhibition of T×NIP.

human neutrophil NOX2 = biological target: T1, human neutrophil NOX2 (Homo sapiens, UniProt P04839); assay: Inhibition of ex vivo superoxide formation by NOX2 in human neutrophils; type: cell-based; details: neutrophils from 11 healthy young volunteers
T1 construct: Using neutrophils from 11 healthy young volunteers; endogenous in cells; host or cells: human neutrophils from healthy volunteers
T1 sequence (P04839 2-570 limits assumed): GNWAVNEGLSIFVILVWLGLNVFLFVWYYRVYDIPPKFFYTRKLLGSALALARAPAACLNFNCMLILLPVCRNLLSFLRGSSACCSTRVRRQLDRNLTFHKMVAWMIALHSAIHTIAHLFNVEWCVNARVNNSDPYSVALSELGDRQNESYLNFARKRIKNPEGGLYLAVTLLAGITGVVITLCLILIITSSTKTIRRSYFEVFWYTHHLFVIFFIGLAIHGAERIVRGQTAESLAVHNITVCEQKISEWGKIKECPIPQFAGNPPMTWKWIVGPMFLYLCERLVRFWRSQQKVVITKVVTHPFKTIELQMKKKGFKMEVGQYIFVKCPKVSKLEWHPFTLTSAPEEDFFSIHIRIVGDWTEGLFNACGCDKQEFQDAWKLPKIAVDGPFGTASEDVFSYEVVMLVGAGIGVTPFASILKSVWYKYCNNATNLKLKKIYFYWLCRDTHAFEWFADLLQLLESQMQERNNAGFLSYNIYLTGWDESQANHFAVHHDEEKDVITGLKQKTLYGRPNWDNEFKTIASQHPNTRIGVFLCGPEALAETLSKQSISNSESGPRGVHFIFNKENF
T1 sequence (P13498 2-195 partner limits assumed): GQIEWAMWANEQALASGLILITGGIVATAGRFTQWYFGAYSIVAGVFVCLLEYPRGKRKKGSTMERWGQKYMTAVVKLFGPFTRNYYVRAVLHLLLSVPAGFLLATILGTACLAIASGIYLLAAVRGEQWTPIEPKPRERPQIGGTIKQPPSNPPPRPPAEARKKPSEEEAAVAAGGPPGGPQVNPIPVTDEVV
Source text: As an index of anti-inflammatory and nitric oxide-sparing potential, the relative potency of the enantiomers as inhibitors of ex vivo superoxide formation by NOX2 was investigated in human neutrophils.
Whilst this enantioselectivity is consistent with different therapeutic indices for the enantiomers, it can be seen that both still contribute to perhexyline's anti-inflammatory effects.

[3] = Perhexyline enantiomer concentrations in plasma, liver and heart; type: in vivo, rat; details: DA rats; for plasma concentration: pure enantiomer 200 mg/kg daily for 8 weeks
Method: Adult female Dark Agouti (DA) rats (n=4 in each group) were administered 200 mg/kg daily of vehicle, racemic-, (+) or (−)-perhexyline maleate for a period of 2 months. The perhexyline maleate compound was administered mixed with peanut paste and coated onto standard rat chow. On day 56 of dosing, animals were anesthetized and blood was collected via a cardiac puncture in order to determine the concentrations of perhexyline enantiomers. Animals were then euthanized and hepatic, cardiac and neuronal tissues were harvested in order to determine perhexyline enantiomer and metabolite tissue concentrations and morphological changes. Tissues were cut in half and either immediately snap frozen in liquid nitrogen or placed into fixative solution for electron microscopy analysis.
Plasma, liver and hear concentrations were measured in Dark Agouti rats treated for 8 weeks with 200 mg/kg/day of (+)-, (−)- or racemic-perhexyline (animals as described in Example 2) using the method of Davies et al., Journal of Chromatography B, 832 (2006) 114-120.
The data are shown in FIGS. 6A and 6B with concentrations adjusted to the equivalent of a 100 mg/kg enantiomeric dose.

Dark Agouti rats = assay: Peripheral neural function by von Frey filament testing (paw withdrawal threshold); type: in vivo, rat; details: DA rats treated for 8 weeks, vs vehicle
Method: At 56 days, neuronal function was measured prior to euthanasia using von Frey filament testing. The thickness of each filament corresponds to a specific amount of pressure (in grams). Each animal was placed in a specifically designed plastic container, with the bottom replaced by mesh flooring. The animal was left for 10-15 minutes to settle into its new environment. In ascending order, von Frey filaments were applied from beneath the mesh flooring to the plantar surface of the paw until the filament buckled and was held there for a total of 10 seconds. A positive response was noted if the paw was withdrawn within the 10-second period. If a filament induced 6 positive responses, the grams corresponding to that filament were recorded as the paw withdrawal threshold.
To test the effect of each enantiomer on peripheral neural function, a Von Frey hairs model was used.

Dark Agouti (DA) rats = assay: Histological (electron microscopy) assessment of hepatic lipid and glycogen content after 8 weeks of dosing; type: in vivo, rat; details: for hepatic glycogen content / hepatic lipid content: 200 mg/kg daily for 8 weeks, vs vehicle, 200 mg/kg
Method: Adult female Dark Agouti (DA) rats (n=4 in each group) were administered 200 mg/kg daily of vehicle, racemic-, (+) or (−)-perhexyline maleate for a period of 2 months. The perhexyline maleate compound was administered mixed with peanut paste and coated onto standard rat chow. On day 56 of dosing, animals were anesthetized and blood was collected via a cardiac puncture in order to determine the concentrations of perhexyline enantiomers. Animals were then euthanized and hepatic, cardiac and neuronal tissues were harvested in order to determine perhexyline enantiomer and metabolite tissue concentrations and morphological changes. Tissues were cut in half and either immediately snap frozen in liquid nitrogen or placed into fixative solution for electron microscopy analysis. Tissue was dissected into cubes of approximately 0.5 mm in each dimension and was fixed for one hour in electron microscopy (EM) fixative (4% formaldehyde and 1.5% glutaraldehyde in sodium cacodylate buffer, pH 7.2). The fixed tissue was post-fixed in 2% osmium tetroxide in sodium cacodylate buffer, en bloc stained with 2% uranyl acetate and dehydrated through 70%, 90% and 100% ethanol. Then, the tissue was processed through 1,2-epoxypropane, a 50/50 mixture of 1,2-epoxypropane and Procure 812 resin (Electron Microscopy Sciences, Fort Washington, USA) and two changes of 100% resin. Tissue and resin were transferred to Beem capsules and placed in an oven overnight at 90° C. Survey sections of tissue blocks were cut with glass knives and stained with Toluidine Blue. Thin sections were cut at approximately 100 nm thickness on a Porter-Blum ultramicrotome (Sorvall, Newtown, USA) using a diamond knife (Micro Star Technologies, Huntsville, USA). Thin sections were stained with Reynolds' lead citrate and examined in a Hitachi H-600 transmission electron microscope (Tokyo, Japan 1983). Glycogen and lipids were identified and total content was measured as a percentage of the field of view.

[4] = tested on: pyruvate dehydrogenase (PDH); assay: Total and phosphorylated pyruvate dehydrogenase in heart tissue by Western blots; type: in vivo; details: DA rat heart; 2 weeks 200 mg/kg/day; isoprenaline 50 mg/kg
Method: DA rats were treated for 2 weeks with vehicle or 200 mg/kg/day of racemic, (+)- or (−)-perhexyline maleate, on day 15 myocardial necrosis was induced by i.p. injection of 50 mg/kg isoprenaline (HCl salt), with a second group of controls receiving an i.p. injection of saline (n=5-8). Total and phosphorylated pyruvate dehydrogenase in heart tissue was measured by Western blots.

[5] = 8 weeks 200 mg/kg/day, dose-adjusted

| pEC50 (human neutrophil NOX2) | distribution into liver, pure enantiomer compared to the racemic formulation [3, 5] | plasma concentration [3] [µg/mL] | neural sensory function (Von Frey hairs) (Dark Agouti rats) | hepatic lipid content (Dark Agouti (DA) rats) | tissue distribution, pure enantiomer vs as part of the racemic formulation [3, 5] | Structure (SMILES) | effect on isoprenaline-induced rise in plasma troponin T [1] | plasma concentration at which severe adverse effects (hepatotoxicity, peripheral neuropathy) are typically seen [2] | recipients with adverse effects [2] | isoprenaline-induced myocardial damage (histological score) (rat isoprenaline model) | isoprenaline-induced increase in myocardial TXNIP staining (TXNIP) | hepatic glycogen content (Dark Agouti (DA) rats) | hepatic steatosis (Dark Agouti (DA) rats; 8 weeks, plasma concentrations similar to those causing hepatotoxicity in humans) | PDH deactivation (measured as phosphorylated PDH) [4] | inhibition of PDH deactivation compared with (+)-perhexyline [4] | total PDH expression [4] |
| --- | --- | --- | --- | --- | --- | --- | --- | --- | --- | --- | --- | --- | --- | --- | --- | --- |
| – | – | – | – | – | – | C1CCC(C(CC2CCCCN2)C2CCCCC2)CC1 (racemic) [racemic perhexyline, 2-(2,2-dicyclohexylethyl) piperidine] | not affected | greater than 0.6 mg/L | more than 60% | – | – | – | – | – | – | – |
| 5.74 | significantly increased | 0.52 to 0.80 | significant decline | significantly increased | – | C1CCC(C(CC2CCCCN2)C2CCCCC2)CC1 (single isomer, unassigned; (+)) [(+)-perhexyline, (+)-enantiomer of perhexyline] | not affected | – | – | only partially attenuated | attenuated | appeared to decrease | causes hepatic steatosis | – | – | – |
| 5.89 | – | 0.22 to 0.39 | did not | no effect | similar | C1CCC(C(CC2CCCCN2)C2CCCCC2)CC1 (single isomer, unassigned; (-)) [(−)-perhexyline, (−)-enantiomer of perhexyline] | exacerbated | – | – | attenuated | attenuated | significantly increased | – | extremely potent inhibitor | more potent | did not affect |
